Two compounds from US4113953A, “2-Nitroimidazole derivatives” (Gruppo Lepetit S.p.A., priority 1976, dated 1978) can be followed below.

SMILES strings stand for the structures.

Data set [1] deals with Trichomonas vaginalis. The data set is described as follows: in vivo activity against Trichomonas vaginalis (ED50, per os, mice) and therapeutic index. The settings on record: for ED50: po, Trichomonas vaginalis. From the text:
(§1) The inventive compounds have very interesting antimicrobial and amoebicidal utilities which are ascertained through the usual and well known in vitro tests. Moreover, they display an outstanding in vivo activity against Trichomonas vaginalis, a protozoan which is responsible for itching and other painful and troublesome diseases of the vaginal tract. Their in vivo activity, expressed as an ED50 value, is better than that of other known 2-nitroimidazole derivatives, and their activity is, moreover, coupled with a very low toxicity, expressed as an LD50 value. These properties indicate that the compounds of the invention are very promising anti-Trichomonas agents both from the effectiveness and the safety standpoint, owing to their […] and their high therapeutic indexes (T.I.). Since a therapeutic index is expressed by the following ratio: [formula] it is clear that the higher the T.I., the safer a drug is.
In the following Table, results representative of the inventive compounds are reported.

Data set [2] can be described thus: toxicity (LD50, per os, mice). In kind it is in vivo.
Text: as §1

For `Cc1ncc([N+](=O)[O-])n1CCO` [metronidazole, 1-(2-hydroxyethyl)-2-methyl-5-nitroimidazole, reference compound], in data set [1] (per os, mice), the “T.I. (LD50/ED50)” value stood at 658 and the ED50 amounted to 5.77 mg/kg. The 50% lethal dose (LD50) in data set [2] was found to be 3800 mg/kg.
`Cn1c(C(C)(C)OC(=O)Oc2ccccc2)cnc1[N+](=O)[O-]` [Example 1, α, α,1-Trimethyl-2-nitroimidazole-5-methanol phenylcarbonate]: in data set [1] (per os, mice), the “T.I. (LD50/ED50)” value is recorded as 1969 and the ED50 came out at 1.65 mg/kg. The “T.I. compared with metronidazole, in words” value in data set [1] (vs metronidazole, LD50/ED50) was “better T.I. than metronidazole”. For the same compound, the “ED50 compared with metronidazole, in words” value in data set [1] (vs metronidazole, per os, mice) was “better ED50”. The compound further came in with an LD50 in data set [2] of 3250 mg/kg.
